{"source": "patent US10202604B2", "about": "“Methods of using microRNA-141” (Stemirna Therapeutics Co., Ltd., priority 2016, dated 2019)", "key": {"[1]": {"test_system": "LAPC9 cells", "assay": "Whole-genome RNA-Seq", "assay_type": "cell-based, human", "procedure": "(§1) Du145 and LAPC9 cells were transfected with 30 nM of miR-141 or negative control oligos for 48 h. Total RNA was purified using RNeasy mini kit (Qiagen, Hilden, Germany). The overexpression of miR-141 was validated by qPCR. 100 ng of total RNA samples was then converted to cDNA using a NuGEN Ovation RNA-Seq System v2 according to the manufacturer's protocol (NuGEN, San Carlos, Calif.). NuGEN-amplified double-stranded cDNAs were fragmented into ˜180 base pair (bp) using a Covaris system (Covaris, Woburn, Mass.). Fragmented cDNAs were run on a SPRI-TE library construction system (Beckman Coulter, Fullerton, Calif.), and during the adaptor ligation step, uniquely indexed NEXTflex adapters (Bioo Scientific, Austin, Tex.) were used for each of the samples to allow for multiplexing. Adapter-ligated libraries were enriched by PCR using a KAPA library amplification kit (KAPA Biosystems, Wilmington, Mass.) (1 cycle at 98° C. for 45 seconds; 7 cycles at 98° C. for 15 seconds, 65° C. for 30 seconds, and 72° C. for 30 seconds; 1 cycle at 72° C. for 1 minute), and purified with AMPureXP beads (Beckman Coulter, Pasadena, Calif.). The purified libraries were quantified using a KAPA library quantification kit. The libraries were loaded on cBot (Illumina, San Diego, Calif.) at final concentration of […] to perform cluster generation, followed by 2×76 bp sequencing on HiSeq 2000 (Illumina, San Diego, Calif.).\n(§2) Sequencing reads were mapped to reference human genome sequence ([…] [hg19] assembly by TopHat (Version 2.0.6). The number of fragments in each known gene from RefSeq database (downloaded from UCSC Genome Browser on Mar. 9, 2012) was enumerated using htseq-count from HTSeq package (version 0.5.4p9). Genes with less than 10 fragments in all the samples were removed before differential expression analysis. The differential expression between conditions was statistically assessed by R/Bioconductor package edgeR (version 3.0.8). Genes with FDR (false discovery rate) of ≤0.05 and >200 bp were called as differentially expressed.\n(§3) For Gene Ontology (GO) analysis, IPA (Ingenuity Pathway Analysis; Qiagen, Valencia, Calif.) and GSEA (Gene Set Enrichment Analysis; Broad Institute) were performed. The standard procedure was followed (www.broadinstitute.org/gsea/doc/GSEAUserGuideFrame.html) as described by GSEA user guide and used curated gene set C2 of the Molecular Signature Database (MSigDB) version 4.0 to compute overlaps between gene set and gene sets in MSigDB. Some of the datasets presented in the text are annotated here.\n(§4) The authors' in-house scripts (12) was utilized for sequence alignment and peak calling. The miR-200a CLIP-Seq results containing the binding information were further extracted and merged with Du145 or LAPC9 RNA-Seq data by gene symbol."}, "[2]": {"test_system": "Du145 cells", "assay": "Whole-genome RNA-Seq", "assay_type": "cell-based, human", "procedure": "as §1, §2, §3, §4"}, "[3]": {"test_system": "CD44hi PC3 cells", "assay": "Dorsal prostate implantation, tumor growth and lung metastasis", "assay_type": "in vivo, NOD/SCID mice", "conditions": "miR-141 via lentiviral infection; 100,000 cells into dorsal prostate", "procedure": "FACS-purified CD44^hi luciferase/GFP double-tagged PC3 cells were infected with Lenti-141 or Lenti-ctl (MOI 10) and 100,000 cells each were injected into the DP of NOD/SCID mice (n=9). Tumor growth and metastasis were monitored using bioluminescence imaging (IVIS). FIGS. 2A-2B show the representative images and quantification (in total photon flux) of primary tumors before termination of the experiment. FIGS. 2C-2D show the representative images (FIG. 2C) and quantification (FIG. 2D) of lung metastasis with the primary tumors covered. […] CD44^+ Du145 cells were infected with Lenti-ctl or Lenti-141 (MOI 10; 72 h) and cells were then injected into the DP of male NOD/SCID mice. Mice were terminated at day 56 and organs including lung were harvested for analyzing metastasis. Shown were representative IHC images of humanspecific Ki-67 staining. […] LAPC9-GFP cells were infected with TRIPZ-NS or TRIPZ-141 inducible lentivirus (MOI 10, 72 h) and CD44^+ cells were purified out by FACS. 100,000 cells each were injected into the DP of NOD/SCID mice and, from day 16 on, two groups of mice were treated with Dox (200 mg/kg body weight in feed). Tumor volumes were measure twice weekly (FIG. 2F). Mice were terminated at day 40 and endpoint tumors were harvested and weighted (FIG. 2G; incidence indicated in bars). […]"}, "[4]": {"conditions": "merged with miR-200a CLIP-Seq data"}}, "note": "Where “and” joins values, the source holds several entries; their conditions need not be identical. Equal entries are not always repeated.", "data": [{"substance": "miR-141: miR-141 mirVana mimics (Life Technologies); microRNA-141 oligonucleotide may have SEQ ID NO: 1; in some experiments over-expressed by lentiviral vectors (UAACACUGUCUGGUAAAGAUGG; listed as RNA, further chemistry not given here) [miR-141 mirVana mimics (Life Technologies); in some experiments over-expressed by lentiviral vectors]", "values": [{"measurement": "TGFB2, ZEB1, MAP2K4, VIM, NYH10, FN1 and many other mesenchymal genes", "setting": "[1]", "value": "downregulated"}, {"measurement": "epithelial markers including E-Cadherin, Claudin members and KRTs", "setting": "[1]", "value": "prominently upregulated"}, {"measurement": "down-regulated genes", "setting": "[1]; FDR<0.05", "value": 459}, {"measurement": "up-regulated genes", "setting": "[1]; FDR<0.05", "value": 265}, {"measurement": "putative direct targets of miR-141 (genes)", "setting": "[1]; RNA-Seq merged with miR-200a CLIP-Seq data", "value": "157 and ~150"}, {"measurement": "TGFB2, ZEB1, MAP2K4, and VIM expression", "setting": "[2]", "value": "downregulated"}, {"measurement": "ZEB2, TWIST2, and SANI2 expression", "setting": "[2]", "value": "inconsistent changes"}, {"measurement": "epithelial markers including E-Cadherin, Claudin family members and cytokeratins (KRT)", "setting": "[2]", "value": "strongly induced"}, {"measurement": "down-regulated genes", "setting": "[2]; FDR<0.05", "value": 949}, {"measurement": "up-regulated genes", "setting": "[2]; FDR<0.05", "value": "1,304"}, {"measurement": "transcripts having binding sites to miR-200a/miR-141", "setting": "[2]; RNA-Seq DEGs merged with miR-200a CLIP-Seq data", "value": 532}, {"measurement": "down-regulated transcripts having binding sites to miR-200a/miR-141", "setting": "[2]; [4]", "value": 263}, {"measurement": "upregulated transcripts having binding sites to miR-200a/miR-141", "setting": "[2]; [4]", "value": 269}, {"measurement": "lung metastasis", "setting": "[3]", "value": "less"}, {"measurement": "primary tumors (size)", "setting": "[3]", "value": "smaller"}]}]}
